# In patent US20230096766A1, “AMINO ACID HAVING FUNCTIONAL GROUP CAPABLE OF INTERMOLECULAR HYDROGEN BONDING, PEPTIDE COMPOUND CONTAINING SAME AND METHOD FOR PRODUCTION THEREOF” (Chugai Seiyaku Kabushiki Kaisha, priority 2018, published 2023):
# *1 amine or outer side, *2 acyl side, *3 side chain or, on linkers, in order; H or OH if unused. Where a SMILES comes first, the peptide text is derived from it. Bridges are numbered along the chain shown (N, C = ends). [ ]: non-standard residue; d: D form. The star is where a group is joined. hPhe(3-OMe,4-CONHMe) = CNC(=O)c1ccc(CC[C@H](N)C(=O)O)cc1OC; Phe(3-CONHMe,4-OMe) = CNC(=O)c1cc(C[C@H](N)C(=O)O)ccc1OC; NMeAbu(4-morpholino) = CN[C@@H](CCN1CCOCC1)C(=O)O; Phe(4-COOH) = N[C@@H](Cc1ccc(C(=O)O)cc1)C(=O)O; NMePhe(3-Cl) = CN[C@@H](Cc1cccc(Cl)c1)C(=O)O; X12 = O=C([C@H](CCCC(O)C(F)(F)F)N[*:1])[*:2]; Tyr(3-OMe) = COc1cc(C[C@H](N)C(=O)O)ccc1O; NMeW = CN[C@@H](Cc1c[nH]c2ccccc12)C(=O)O; NMehPhe = CN[C@@H](CCc1ccccc1)C(=O)O; X6 = O=C([C@H](CCCCO)N[*:1])[*:2]; NMeF = CN[C@@H](Cc1ccccc1)C(=O)O; NMeGABA = CN(CCCC(=O)[*:2])[*:1]; NMeI = CC[C@H](C)[C@H](NC)C(=O)O; CH2CH(OH)CF3 = OC(C*)C(F)(F)F; NMeL = CN[C@@H](CC(C)C)C(=O)O; NMeV = CN[C@H](C(=O)O)C(C)C; NMeAbu = CC[C@H](NC)C(=O)O; NMeA = CN[C@@H](C)C(=O)O; Piperidide = C1CCN(*)CC1; CH2CMe2OH = CC(C)(O)C*; Me2NCH2CH2 = CN(C)CC*; NBuGly = CCCCNCC(=O)O; Isopentyl = CC(C)CC*; NPrGly = CCCNCC(=O)O; N(OH)Me = CN(O)*; Sar = CNCC(=O)O; tBu = CC(C)(C)*
# Assay: in vitro
# Conditions: human
# [1] = Caco-2, Caco-2 (membrane permeability)
Structure (SMILES),"Papp (Caco-2, Caco-2 (cm/sec)) [×10⁻⁶ cm/s]",other results
CC[C@H](C)[C@@H]1NC(=O)[C@H](CC(C)C)N(C)C(=O)CCCN(C)C(=O)C[C@@H](C(=O)N2CCCCC2)NC(=O)[C@H](CC(C)C)N(C)C(=O)[C@H](CC(C)C)N(C)C(=O)[C@H]([C@@H](C)O)NC(=O)[C@H](CC(C)C)N(C)C(=O)[C@H](Cc2ccc(C(=O)N(C)O)cc2)NC(=O)[C@H](CC(C)C)N(C)C(=O)[C@H](Cc2ccccc2)N(C)C1=O [AP251] ([NMeGABA][NMeL]I[NMeF][NMeL][Phe(4-COOH)](N(OH)Me)[NMeL]T[NMeL][NMeL]D-Piperidide; lactam N-11),0.03,–
CCCN1CC(=O)N(C)[C@@H](CC(C)C)C(=O)N[C@@H](COCCC(C)C)C(=O)N(C)[C@@H](Cc2ccccc2)C(=O)N(C)[C@@H](C(C)C)C(=O)N[C@H](C(=O)N2CCCCC2)CC(=O)N[C@H](C(C)C)C(=O)N(C)[C@@H](Cc2ccccc2)C(=O)N[C@@H](COCC(C)(C)O)C(=O)N(C)[C@@H](CC(C)C)C(=O)N[C@@H]([C@@H](C)O)C1=O [AP01] ([dV][NMeF]S(CH2CMe2OH)[NMeL]T[NPrGly][NMeL]S(Isopentyl)[NMeF][NMeV]D-Piperidide; lactam N-11),1.4,–
CCCCN1CC(=O)N(C)[C@@H](CCN2CCOCC2)C(=O)N[C@H](C(=O)N2CCCCC2)CC(=O)N(C)[C@@H](C)C(=O)N[C@@H](CC(C)C)C(=O)N(C)[C@@H](CC(C)C)C(=O)N(C)[C@@H](Cc2ccccc2)C(=O)N[C@@H](CC(C)C)C(=O)N(C)[C@@H](Cc2ccccc2)C(=O)N(C)[C@@H](CC(C)C)C(=O)N[C@@H]([C@@H](C)O)C1=O [pd454] ([NMeA]L[NMeL][NMeF]L[NMeF][NMeL]T[NBuGly][NMeAbu(4-morpholino)]D-Piperidide; lactam N-11),–,"Papp (Caco-2, Caco-2): 1.2 ×10⁻⁶ cm/s"
CCCN1CC(=O)N(C)[C@@H](CCc2ccccc2)C(=O)N(C)[C@@H](CC(C)C)C(=O)N[C@@H](COCCC(C)C)C(=O)N(C)[C@@H](CC(C)C)C(=O)N[C@H](C(=O)N2CCCCC2)CC(=O)N(C)CC(=O)N(C)[C@@H](Cc2cccc(Cl)c2)C(=O)N[C@@H](CCCCO)C(=O)N(C)[C@@H](C(C)C)C(=O)N[C@@H]([C@@H](C)O)C1=O [Compound B07] ([Sar][NMePhe(3-Cl)][X6][NMeV]T[NPrGly][NMehPhe][NMeL]S(Isopentyl)[NMeL]D-Piperidide; lactam N-11),0.21,–
CCCCN1CC(=O)N(C)[C@@H](CC(C)C)C(=O)N[C@@H](COCCN(C)C)C(=O)N(C)[C@@H](Cc2ccccc2)C(=O)N(C)[C@@H](C(C)C)C(=O)N[C@H](C(=O)N2CCCCC2)CC(=O)N[C@H](CC(C)C)C(=O)N(C)[C@@H](Cc2ccccc2)C(=O)N[C@@H](CC(C)C)C(=O)N(C)[C@@H](CC(C)C)C(=O)N[C@@H]([C@@H](C)O)C1=O [pd51] ([dL][NMeF]L[NMeL]T[NBuGly][NMeL]S(Me2NCH2CH2)[NMeF][NMeV]D-Piperidide; lactam N-11),–,"Papp (Caco-2, Caco-2): 0.07 ×10⁻⁶ cm/s"
CC(C)C[C@@H]1NC(=O)[C@H](Cc2c[nH]c3ccccc23)N(C)C(=O)[C@@H](C(C)C)NC(=O)C[C@@H](C(=O)N2CCCCC2)NC(=O)[C@H](CC(C)C)N(C)C(=O)[C@H](CC(C)C)N(C)C(=O)[C@H](COC(C)(C)C)NC(=O)[C@H](CC(C)C)N(C)C(=O)CN(C)C(=O)[C@H]([C@@H](C)O)NC(=O)[C@H](CC(C)C)N(C)C1=O [pd106] ([dV][NMeW]L[NMeL]T[Sar][NMeL]S(tBu)[NMeL][NMeL]D-Piperidide; lactam N-11),0.36,–
CC[C@H](C)[C@H]1C(=O)N[C@@H]([C@@H](C)O)C(=O)N(C)CC(=O)N(C)[C@@H](CC(C)C)C(=O)N[C@H](C(=O)N2CCCCC2)CC(=O)N(C)[C@@H](C(C)C)C(=O)N[C@@H](CCCC(O)C(F)(F)F)C(=O)N(C)[C@@H](CC(C)C)C(=O)N(C)[C@@H](Cc2ccccc2)C(=O)N[C@@H](CC(C)C)C(=O)N(C)[C@@H](Cc2ccccc2)C(=O)N1C (stereo partly drawn) [Compound D08] ([NMeV][X12][NMeL][NMeF]L[NMeF][NMeI]T[Sar][NMeL]D-Piperidide; lactam N-11),–,Papp [1]: 0.53 ×10⁻⁶ cm/s
CC(C)C[C@@H]1NC(=O)[C@H](Cc2ccccc2)N(C)C(=O)[C@H](COC(C)(C)C)NC(=O)[C@H](Cc2ccccc2)N(C)C(=O)[C@H](C)N(C)C(=O)[C@H](CC(C)C)N(C)C(=O)[C@@H]2CCCN2C(=O)C[C@@H](C(=O)N2CCCCC2)NC(=O)[C@H](Cc2ccccc2)N(C)C(=O)[C@H]([C@@H](C)O)NC(=O)[C@H](CC(C)C)N(C)C1=O [pd214] (P[NMeL][NMeA][NMeF]S(tBu)[NMeF]L[NMeL]T[NMeF]D-Piperidide; lactam N-11),1.2,–
CC[C@H]1C(=O)N[C@@H](Cc2ccc(O)c(OC)c2)C(=O)N(C)[C@@H](CC(C)C)C(=O)N(C)[C@@H](CC(C)C)C(=O)N[C@@H](C(C)C)C(=O)N(C)[C@@H](Cc2ccccc2)C(=O)N(C)[C@@H](CC(C)C)C(=O)N[C@@H]([C@@H](C)O)C(=O)N(C)CC(=O)N(C)[C@@H](CC(C)C)C(=O)N[C@H](C(=O)N2CCCCC2)CC(=O)N1C [Compound E06] ([NMeAbu][Tyr(3-OMe)][NMeL][NMeL]V[NMeF][NMeL]T[Sar][NMeL]D-Piperidide; lactam N-11),0.97,–
CC[C@H](C)[C@H]1C(=O)N[C@@H]([C@@H](C)O)C(=O)N(C)CC(=O)N(C)[C@@H](CC(C)C)C(=O)N[C@H](C(=O)N2CCCCC2)CC(=O)N(C)[C@@H](C(C)C)C(=O)N[C@@H](COCC(O)C(F)(F)F)C(=O)N(C)[C@@H](CC(C)C)C(=O)N(C)[C@@H](Cc2ccccc2)C(=O)N[C@@H](CC(C)C)C(=O)N(C)[C@@H](Cc2ccccc2)C(=O)N1C (stereo partly drawn) [Compound C08] ([NMeV]S(CH2CH(OH)CF3)[NMeL][NMeF]L[NMeF][NMeI]T[Sar][NMeL]D-Piperidide; lactam N-11),–,Papp [1]: 0.6 ×10⁻⁶ cm/s
"CC[C@H](C)[C@@H]1NC(=O)[C@H](CC(C)C)N(C)C(=O)CCCN(C)C(=O)C[C@@H](C(=O)N2CCCCC2)NC(=O)[C@H](CC(C)C)N(C)C(=O)[C@H](CC(C)C)N(C)C(=O)[C@H]([C@@H](C)O)NC(=O)[C@H](CC(C)C)N(C)C(=O)[C@H](CCc2ccc(C(=O)NC)c(OC)c2)NC(=O)[C@H](CC(C)C)N(C)C(=O)[C@H](Cc2ccccc2)N(C)C1=O [AP202] ([NMeGABA][NMeL]I[NMeF][NMeL][hPhe(3-OMe,4-CONHMe)][NMeL]T[NMeL][NMeL]D-Piperidide; lactam N-11)",0.18,–
CC[C@H](C)[C@@H]1NC(=O)[C@H](Cc2ccccc2)N(C)C(=O)[C@@H](C)NC(=O)C[C@@H](C(=O)N2CCCCC2)NC(=O)[C@H](CC(C)C)N(C)C(=O)[C@H](C)N(C)C(=O)[C@H](COC(C)(C)C)NC(=O)[C@H](C)N(C)C(=O)CN(C)C(=O)[C@H](Cc2ccc(O)cc2)NC(=O)[C@H](CC(C)C)N(C)C1=O [pd112] ([dA][NMeF]I[NMeL]Y[Sar][NMeA]S(tBu)[NMeA][NMeL]D-Piperidide; lactam N-11),0.11,–
"CC[C@H](C)[C@@H]1NC(=O)[C@H](CC(C)C)N(C)C(=O)CCCN(C)C(=O)C[C@@H](C(=O)N2CCCCC2)NC(=O)[C@H](CC(C)C)N(C)C(=O)[C@H](CC(C)C)N(C)C(=O)[C@H]([C@@H](C)O)NC(=O)[C@H](CC(C)C)N(C)C(=O)[C@H](Cc2ccc(OC)c(C(=O)NC)c2)NC(=O)[C@H](CC(C)C)N(C)C(=O)[C@H](Cc2ccccc2)N(C)C1=O [AP38] ([NMeGABA][NMeL]I[NMeF][NMeL][Phe(3-CONHMe,4-OMe)][NMeL]T[NMeL][NMeL]D-Piperidide; lactam N-11)",0.2,–
